Counter-ions that a name gives are not always drawn.
How the values were obtained:
[1] = as described in WO '870; cited from earlier work
[2] = Polymorphic conversion when heated; format: physicochemical
[3] = as described in WO '870; cited from earlier work; remark: listed apart in the source

## Cc1cn(-c2cc(NC(=O)c3ccc(C)c(Nc4nccc(-c5cccnc5)n4)c3)cc(C(F)(F)F)c2)cn1 [Nilotinib HCl form A, Nilotinib HCl]
[1]
  conversion to other polymorphs when heated: converted to other polymorphs

## Cc1cn(-c2cc(NC(=O)c3ccc(C)c(Nc4nccc(-c5cccnc5)n4)c3)cc(C(F)(F)F)c2)cn1 [Nilotinib HCl crystalline form T17, Nilotinib HCl]
[2]
  conversion to other forms when heated: does not convert to other forms when heated

## Cc1cn(-c2cc(NC(=O)c3ccc(C)c(Nc4nccc(-c5cccnc5)n4)c3)cc(C(F)(F)F)c2)cn1 [Nilotinib HCl form B, Nilotinib HCl]
[3]
  solubility in IPA: not soluble in IPA
